Source: patent US12492185B2, “Benzimidazole derivatives and their uses” (Teijin Pharma Limited, priority 2019, dated 2025)

Target: T1, human TRPC6 (Homo sapiens, UniProt Q9Y210)
T1 construct: expressed in transfected cells
T1 sequence (Q9Y210 1-931): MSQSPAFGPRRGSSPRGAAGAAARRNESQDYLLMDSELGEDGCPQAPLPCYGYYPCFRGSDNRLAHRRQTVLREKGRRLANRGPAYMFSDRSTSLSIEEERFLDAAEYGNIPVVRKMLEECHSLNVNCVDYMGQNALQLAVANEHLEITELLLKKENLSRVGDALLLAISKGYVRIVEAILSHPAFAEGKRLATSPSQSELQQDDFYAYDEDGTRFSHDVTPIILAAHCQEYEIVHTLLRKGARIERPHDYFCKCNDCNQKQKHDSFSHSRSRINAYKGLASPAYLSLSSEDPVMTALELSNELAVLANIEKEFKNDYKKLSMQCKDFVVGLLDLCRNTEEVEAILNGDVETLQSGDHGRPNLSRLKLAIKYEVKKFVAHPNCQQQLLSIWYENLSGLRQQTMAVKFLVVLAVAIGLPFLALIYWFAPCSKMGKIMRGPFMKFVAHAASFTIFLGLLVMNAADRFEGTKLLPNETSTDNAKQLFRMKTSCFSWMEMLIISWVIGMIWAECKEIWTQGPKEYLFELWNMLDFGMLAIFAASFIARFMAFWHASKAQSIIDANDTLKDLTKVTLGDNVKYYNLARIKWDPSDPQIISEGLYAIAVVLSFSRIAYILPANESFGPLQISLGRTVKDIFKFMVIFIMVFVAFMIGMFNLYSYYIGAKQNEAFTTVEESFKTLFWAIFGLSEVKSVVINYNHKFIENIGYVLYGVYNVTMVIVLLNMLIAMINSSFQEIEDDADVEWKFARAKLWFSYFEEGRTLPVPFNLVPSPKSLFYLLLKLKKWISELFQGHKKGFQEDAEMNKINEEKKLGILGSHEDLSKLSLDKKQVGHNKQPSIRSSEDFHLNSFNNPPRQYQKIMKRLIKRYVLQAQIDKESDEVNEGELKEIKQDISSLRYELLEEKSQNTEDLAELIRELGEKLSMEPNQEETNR
Assay: TRPC6 Calcium Flux Assay
Assay type: cell-based
Conditions: inhibition of OAG-triggered calcium influx in HEK293 cells stably transfected with human TRPC6; FLIPR; 25 min compound preincubation; 50 uM OAG; read-out: hTRPC6 Potency
Method: Potency of TRPC6 (Transient receptor potential channel family C6) inhibitors were measured by their inhibition of Calcium influx trigged by OAG (1-Oleoyl-2-acetyl-sn-glycerol, Millipore Sigma, O6754) stimulation on HEK293 cells stably transfected with human TRPC6 using a FLIPR tetra system (BD PBX Calcium Assay Kit; BD Biosciences, San Jose Calif.). Cells were grown in a humidified environment at 37° C. under 5% CO2 using the growth medium with the following selective reagents (Dulbecco's Modified Eagle's Medium (DMEM) high glucose, 10% Fetal Bovine Serum, 1×PSGlu (penicillin-streptomycin glutamine), 1×NEAA (Non-essential amino acid), 1×Na Pyruvate and 200 ug/ml Hygromycin). For general passage, cells were grown to 70-90% confluency; the media was removed, and the cells were gently washed 2 times with calcium and magnesium free PBS (phosphate-buffered saline). Trypsin (3 mL) was applied for 5 minutes at 37° C. The cells were dislodged by rapping flask against base of a hand and 7 mL of growth medium was added to deactivate trypsin and re-suspend cells. The usual splitting schedule was 1:5 every 2-3 days.
Cells were plated the day before the assay, plating cell density is 1.0-1.5×10^4/25 μl/well in poly-D-lysine (PDL) coated 384-well plates using either multichannel pipettes or multidrop. These cells were first incubated with fluorescence dye at room temperature for 90-120 minutes after they were grown on PDL-coated 384-well black plates overnight (Dye loading buffer 10 ml example: 9 mL assay buffer, 1 mL, 10×PBX signal enhancer, 10 μL Calcium indicator). The cells were incubated with a dose of compounds for 25 minutes before being stimulated with TRPC6 agonist OAG. The OAG solution was prepared by adding OAG into assay buffer (Ca ringer solution base: 10 mM HEPES (4-(2-hydroxyethyl)-1-piperazine-ethanesulfonic acid), 4 mM MgCl2, 120 mM NaCl, 5 mM KCl, pH=7.2 @25° C.)+0.1% BSA+2 mM CaCl2) to the concentration of 0.2 mM/2% DMSO, which achieves a final on cell concentration of 50 uM/0.5% DMSO. 12.5 uL OAG mixture was added and the activation of the TRPC6 channel was measured by the change of intracellular Calcium levels on FLIPR terra system.
Data was acquired by measuring the fluorescent peak signal subtracted from the background during the 180 second imaging frame. Each data point is further normalized to 100% of OAG triggered signal vs. buffer. Table 3 provides the IC50 for each compound, which data is obtained by plotting peak signal over the compound dose.

Compound | IC50 [nM]
N[C@@H]1CN(c2nc3cc(F)c(F)cc3n2Cc2ccc(Cl)cn2)CCC1(F)F [Example 16, (3R)-1-(1-((5-chloro-2-pyridinyl)methyl)-5,6-difluoro-1H-benzimidazol-2-yl)-4,4-difluoro-3-piperidinamine] | 0.6
N[C@@H]1CN(c2nc3ccc(F)cc3n2Cc2ccc(Cl)cn2)CCC1(F)F (single isomer, unassigned) [Example 10] | 2.5
N[C@@H]1CN(c2nc3c(F)cc(F)cc3n2Cc2ncc(Cl)cn2)CCC1(F)F (single isomer, unassigned) [Example 14] | 1.2
N[C@@H]1CN(c2nc3cc(F)c(F)cc3n2Cc2ncc(Cl)cn2)CC[C@H]1F [Example 18, (3R,4R)-1-(1-((5-chloro-2-pyrimidinyl)methyl)-5,6-difluoro-1H-benzimidazol-2-yl)-4-fluoro-3-piperidinamine] | 1.2
COc1cnc(Cn2c(N3CC[C@@H](F)[C@H](N)C3)nc3c(F)cc(F)cc32)nc1 (single isomer, unassigned) [Example 9] | 0.5
N[C@@H]1CN(c2nc3cc(F)cc(F)c3n2Cc2ccc(F)cn2)CCC1(F)F (single isomer, unassigned) [Example 2] | 2.2
N[C@@H]1CN(c2nc3cc(F)c(F)cc3n2Cc2ncc(Cl)cn2)CCC1(F)F [Example 17, (3R)-1-(1-((5-chloro-2-pyrimidinyl)methyl)-5,6-difluoro-1H-benzimidazol-2-yl)-4,4-difluoro-3-piperidinamine] | 0.6
N#Cc1ccc2nc(N3CCC(F)(F)[C@H](N)C3)n(Cc3ccc(Cl)cn3)c2c1 (single isomer, unassigned) [Example 13] | 1.3
COc1cnc(Cn2c(N3CC[C@@H](F)[C@H](N)C3)nc3cc(F)c(F)cc32)nc1 [Example 19, (3R,4R)-1-(5,6-difluoro-1-((5-methoxy-2-pyrimidinyl)methyl)-1H-benzimidazol-2-yl)-4-fluoro-3-piperidinamine] | 1.2
N#Cc1cccc(Cn2c(N3CC[C@@H](F)[C@H](N)C3)nc3cc(F)c(F)cc32)n1 [Example 20, 6-((2-((3R,4R)-3-amino-4-fluoro-1-piperidinyl)-5,6-difluoro-1H-benzimidazol-1-yl)methyl)-2-pyridinecarbonitrile] | 1.8
N[C@@H]1CN(c2nc3ccc(F)cc3n2Cc2ncc(Cl)cn2)CCC1(F)F (single isomer, unassigned) [Example 6] | 1
COc1cc(F)c2nc(N3CC[C@@H](F)[C@H](N)C3)n(Cc3ncc(Cl)cn3)c2c1 (single isomer, unassigned) [Example 21] | 0.4
N[C@@H]1CN(c2nc3cc(F)ccc3n2Cc2ccc(Cl)cn2)CCC1(F)F (single isomer, unassigned) [Example 5] | 0.3

The remaining lines, values ahead:

IC50 [nM] | Compound
22.9 | N[C@@H]1CN(c2nc3ccc(F)cc3n2Cc2ccc(F)cn2)CCC1(F)F (single isomer, unassigned) [Example 7]
1 | N#Cc1cc(F)cc2c1nc(N1CC[C@@H](F)[C@H](N)C1)n2Cc1ccc(F)cn1 (single isomer, unassigned) [Example 15]
0.2 | N[C@@H]1CN(c2nc3ccc(F)cc3n2Cc2ncc(F)cn2)CC[C@H]1F (single isomer, unassigned) [Example 3]
0.1 | Cc1ccc(Cn2c(N3CC[C@@H](F)[C@H](N)C3)nc3cc(F)c(F)cc32)nc1 [Example 8, (3R,4R)-1-(5,6-difluoro-1-((5-methyl-2-pyridinyl)methyl)-1H-benzimidazol-2-yl)-4-fluoro-3-piperidinamine]
0.4 | N[C@@H]1CN(c2nc3ccc(F)cc3n2Cc2ccc(F)cn2)CC[C@H]1F (single isomer, unassigned) [Example 4]
1 | N[C@@H]1CN(c2nc3ccc(F)cc3n2Cc2ccc(Cl)cn2)CC[C@H]1F (single isomer, unassigned) [Example 12, (3R.4R)-1-(1-((5-chloro-2-pyridinyl)methyl)-6-fluoro-1H-benzimidazol-2-yl)-4-fluoro-3-piperidinamine]
0.4 | N[C@@H]1CN(c2nc3cc(F)ccc3n2Cc2ncc(F)cn2)CC[C@H]1F (single isomer, unassigned) [Example 11]
0.7 | N[C@@H]1CN(c2nc3cc(F)ccc3n2Cc2ccc(F)cn2)CC[C@H]1F (single isomer, unassigned) [Example 1]
